Holding throughout (assay type): biochemical
Experiment [1] deals with T1, human Lck enzyme (Homo sapiens, UniProt P06239).
T1 construct: purchased Carna Biosciences, Inc. 08-170
Nature of the experiment: Lck enzyme inhibitory activity (time-resolved fluorometry, biotinylated peptide phosphorylation). To be noted: read-out: LCK_IC50. The method in brief:
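Readout pairs a europium cryptate-labelled anti-phosphotyrosine antibody with XL665-streptavidin, measured by time-resolved fluorescence. IC50 derived from percent inhibition against untreated controls.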

In experiment [2] the target is T2, human Yes1 enzyme (Homo sapiens, UniProt P07947).
T2 construct: made in house
Kind of experiment: Yes1 enzyme inhibitory activity (time-resolved fluorometry, biotinylated peptide phosphorylation). To be noted: read-out: YES_IC50. The method in brief:
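Inhibition was expressed against a compound-free control to give IC50, using TR-FRET read-out (Eu-cryptate anti-pTyr antibody, streptavidin-XL665).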

For experiment [3], the target named is T3, human Src enzyme (Homo sapiens, UniProt P12931).
T3 construct: purchased Carna Biosciences, Inc. 08-173
Kind of experiment: Src enzyme inhibitory activity (time-resolved fluorometry, biotinylated peptide phosphorylation). To be noted: read-out: SRC_IC50. The method in brief:
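Compounds were tested for blocking tyrosine phosphorylation of a biotinylated peptide substrate by recombinant human Src. Phosphorylated product was quantified by time-resolved fluorometry using europium cryptate and XL665 conjugates, and IC50 was calculated against the compound-free control.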

The mark [4] stands for this setting: biotinylated peptide phosphorylation.

Where two headings read alike, the source gives them in different places.

T1 sequence (P06239 whole entry): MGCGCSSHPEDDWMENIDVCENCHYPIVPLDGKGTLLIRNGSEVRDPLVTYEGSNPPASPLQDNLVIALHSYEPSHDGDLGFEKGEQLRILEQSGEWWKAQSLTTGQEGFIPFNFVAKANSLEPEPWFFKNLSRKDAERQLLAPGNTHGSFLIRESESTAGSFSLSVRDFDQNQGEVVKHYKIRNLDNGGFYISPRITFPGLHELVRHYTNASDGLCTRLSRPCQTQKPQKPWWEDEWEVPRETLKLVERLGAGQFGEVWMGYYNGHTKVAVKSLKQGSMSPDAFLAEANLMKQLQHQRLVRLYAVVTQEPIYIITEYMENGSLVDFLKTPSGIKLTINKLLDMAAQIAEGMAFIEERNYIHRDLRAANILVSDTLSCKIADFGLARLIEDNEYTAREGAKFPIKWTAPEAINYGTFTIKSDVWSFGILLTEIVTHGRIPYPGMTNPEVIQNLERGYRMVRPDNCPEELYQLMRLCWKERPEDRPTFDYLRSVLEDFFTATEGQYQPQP
T2 sequence (P07947 whole entry): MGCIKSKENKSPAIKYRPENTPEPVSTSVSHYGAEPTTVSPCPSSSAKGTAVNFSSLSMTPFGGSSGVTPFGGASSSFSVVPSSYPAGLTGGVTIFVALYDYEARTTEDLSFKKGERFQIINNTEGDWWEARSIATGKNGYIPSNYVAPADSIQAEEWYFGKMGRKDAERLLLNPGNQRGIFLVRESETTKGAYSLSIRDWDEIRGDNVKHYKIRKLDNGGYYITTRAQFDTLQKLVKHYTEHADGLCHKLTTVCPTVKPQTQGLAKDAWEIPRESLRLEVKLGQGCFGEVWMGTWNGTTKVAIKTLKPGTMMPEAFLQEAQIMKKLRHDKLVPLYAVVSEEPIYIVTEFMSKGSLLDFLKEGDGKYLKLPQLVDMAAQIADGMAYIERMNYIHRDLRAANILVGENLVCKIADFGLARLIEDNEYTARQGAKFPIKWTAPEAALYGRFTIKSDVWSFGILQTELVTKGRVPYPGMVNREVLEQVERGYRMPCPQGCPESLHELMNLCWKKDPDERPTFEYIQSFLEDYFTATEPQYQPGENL
T3 sequence (P12931 whole entry): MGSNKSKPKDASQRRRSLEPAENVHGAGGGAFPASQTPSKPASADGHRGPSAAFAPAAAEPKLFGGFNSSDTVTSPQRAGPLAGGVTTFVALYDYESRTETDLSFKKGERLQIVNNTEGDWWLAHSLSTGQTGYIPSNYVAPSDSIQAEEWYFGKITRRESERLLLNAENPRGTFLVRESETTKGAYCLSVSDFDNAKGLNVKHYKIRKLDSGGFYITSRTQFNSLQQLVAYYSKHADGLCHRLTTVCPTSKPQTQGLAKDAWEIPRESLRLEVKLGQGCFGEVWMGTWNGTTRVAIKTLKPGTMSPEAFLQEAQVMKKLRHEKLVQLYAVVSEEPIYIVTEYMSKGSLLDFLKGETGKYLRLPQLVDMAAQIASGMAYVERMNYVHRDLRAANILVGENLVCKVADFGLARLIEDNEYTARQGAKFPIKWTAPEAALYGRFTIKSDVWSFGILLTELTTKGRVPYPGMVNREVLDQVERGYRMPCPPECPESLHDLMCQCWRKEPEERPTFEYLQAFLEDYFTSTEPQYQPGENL

In the case of `Cc1cc2cc(C(=O)c3cnn(-c4cnc(Oc5ccccc5Cl)cc4C)c3N)[nH]c2cc1NS(C)(=O)=O` [Example 4-2-063, N-[2-[5-amino-1-[6-(2-chlorophenoxy)-4-methylpyridin-3-yl]pyrazole-4-carbonyl]-5-methyl-1H-indol-6-yl]methanesulfonamide], the IC50 in experiment [1] (setting [4]) turned out to be 8.3 nM; in experiment [2] (setting [4]), 2 nM; in experiment [3] (setting [4]), 78 nM.
Turning to `Cc1cc(-n2ncc(C(=O)c3cc4cc(OC5CCN(C6CCC6)CC5)c(N5C(=O)NC(C)(C)C5=O)cc4[nH]3)c2N)ccc1Oc1ccccc1F` [Example 5-1-233, 3-(2-(5-amino-1-(4-(2-fluorophenoxy)-3-methylphenyl)-1H-pyrazole-4-carbonyl)-5-((1-cyclobutylpiperidin-4-yl)oxy)-1H-indol-6-yl)-5,5-dimethylimidazolidine-2,4-dione], the IC50 in experiment [1] stood at 21 nM; in experiment [2], 0.92 nM; in experiment [3], 340 nM.
Turning to `Cc1cc(Oc2c(F)cccc2F)ncc1-n1ncc(C(=O)c2cc3cc(F)c(NS(C)(=O)=O)cc3[nH]2)c1N` [Example 4-2-031, N-[2-[5-amino-1-[6-(2,6-difluorophenoxy)-4-methylpyridin-3-yl]pyrazole-4-carbonyl]-5-fluoro-1H-indol-6-yl]methanesulfonamide], the IC50 in experiment [1] (setting [4]) was 4.3 nM; in experiment [2] (setting [4]), 0.69 nM; in experiment [3] (setting [4]), 37 nM.
`Cc1cc2cc(C(=O)c3cnn(-c4cnc(Oc5c(F)cccc5F)cc4C)c3N)[nH]c2cc1N1C(=O)NC2(CCN(C3COC3)CC2)C1=O` [Example 5-1-360, 3-[2-[5-amino-1-[6-(2,6-difluorophenoxy)-4-methylpyridin-3-yl]pyrazole-4-carbonyl]-5-methyl-1H-indol-6-yl]-8-(oxetan-3-yl)-1,3,8-triazaspiro[4.5]decane-2,4-dione]: the IC50 is 6.3 nM in experiment [1], 2.2 nM in experiment [2] and 19 nM in experiment [3].
On the same counts, the results for `Cc1cc2cc(C(=O)c3cnn(-c4cnc(Oc5c(F)cccc5F)cc4C)c3N)[nH]c2cc1N1C(=O)NC2(CCNCC2)C1=O` [Example 5-1-357, 3-[2-[5-amino-1-[6-(2,6-difluorophenoxy)-4-methylpyridin-3-yl]pyrazole-4-carbonyl]-5-methyl-1H-indol-6-yl]-1,3,8-triazaspiro[4.5] decane-2,4-dione] are 4.4 nM, 2.3 nM and 39 nM.
Take `Cc1cc(Oc2ccccc2F)ncc1-n1ncc(C(=O)c2cc3cc(OCC(F)F)c(N4CCCC4=O)cc3[nH]2)c1N` [Example 4-25-013, 1-{2-{5-amino-1-[6-(2-fluorophenoxy)-4-methylpyridin-3-yl]pyrazole-4-carbonyl}-5-(2,2-difluoroethoxy)-1H-indol-6-yl}pyrrolidin-2-one]: the figures for the IC50 in experiment [1] (setting [4]), in experiment [2] (setting [4]) and in experiment [3] (setting [4]) were 4 nM, 1 nM and 16 nM, respectively.
Regarding `Cc1cc(Oc2ccccc2F)ccc1-n1ncc(C(=O)c2cc3cc(F)c(NS(=O)(=O)c4cccc(C#N)c4)cc3[nH]2)c1N` [Example 5-1-490, N-[2-[5-amino-1-[4-(2-fluorophenoxy)-2-methylphenyl]pyrazole-4-carbonyl]-5-fluoro-1H-indol-6-yl]-3-cyanobenzenesulfonamide], the figures for the IC50 in experiment [1] (setting [4]), in experiment [2] (setting [4]) and in experiment [3] (setting [4]) were 110 nM, 3.7 nM and 430 nM, respectively.
In the case of `Cc1cc(Oc2cccc(Cl)c2)ccc1-n1ncc(C(=O)c2cc3cc(C4CCN(C(C)C)CC4)c(F)cc3[nH]2)c1N` [Example 4-2-003, [5-amino-1-[4-(3-chlorophenoxy)-2-methylphenyl]pyrazol-4-yl]-[6-fluoro-5-(1-propan-2-ylpiperidin-4-yl)-1H-indol-2-yl]methanone], the figures for the IC50 in experiment [1] (setting [4]), in experiment [2] (setting [4]) and in experiment [3] (setting [4]) were 2.1 nM, 1.4 nM and 6.4 nM, respectively.
For the compound `Cc1cc(Oc2ccccc2F)ccc1-n1ncc(C(=O)c2cc3cc(F)c(N4C(=O)C(C)(C)NC4=S)cc3[nH]2)c1N` [Example 5-1-126, 3-[2-[5-amino-1-[4-(2-fluorophenoxy)-2-methylphenyl]pyrazole-4-carbonyl]-5-fluoro-1H-indol-6-yl]-5,5-dimethyl-2-sulfanylideneimidazolidin-4-one], the IC50 was 15 nM in experiment [1], 0.87 nM in experiment [2] and 64 nM in experiment [3].
With `Cc1cc2cc(C(=O)c3cnn(-c4cnc(Oc5ccccc5F)cc4C)c3N)[nH]c2cc1NS(=O)(=O)c1cccc(C(F)(F)F)n1` [Example 5-1-486, N-[2-[5-amino-1-[6-(2-fluorophenoxy)-4-methylpyridin-3-yl]pyrazole-4-carbonyl]-5-methyl-1H-indol-6-yl]-6-(trifluoromethyl) pyridine-2-sulfonamide], the IC50 in experiment [1] (setting [4]) worked out at 160 nM; in experiment [2] (setting [4]), 7.3 nM; in experiment [3] (setting [4]) it was 620 nM.
As for `Cc1cc2cc(C(=O)c3cnn(-c4cnc(Oc5cccc(Cl)c5)cc4C)c3N)[nH]c2cc1NS(=O)(=O)N1CCOCC1` [Example 4-2-111, N-[2-[5-amino-1-[6-(3-chlorophenoxy)-4-methylpyridin-3-yl]pyrazole-4-carbonyl]-5-methyl-1H-indol-6-yl]morpholine-4-sulfonamide], the IC50 stood at 320 nM in experiment [1] (setting [4]), 41 nM in experiment [2] (setting [4]) and 690 nM in experiment [3] (setting [4]).
With `Cc1cc(Oc2c(F)cccc2F)ncc1-n1ncc(C(=O)c2cc3cc(OC(F)F)c(Br)cc3[nH]2)c1N` [Example 5-1-149, [5-amino-1-[6-(2,6-difluorophenoxy)-4-methylpyridin-3-yl]pyrazol-4-yl]-[6-bromo-5-(difluoromethoxy)-1H-indol-2-yl]methanone], the IC50 is 43 nM in experiment [1], 5 nM in experiment [2] and 57 nM in experiment [3].
As for `Cc1cc2cc(C(=O)c3cnn(-c4cnc(Oc5ccc(F)cc5)cc4C)c3N)[nH]c2cc1NS(=O)(=O)N1CCOCC1` [Example 5-1-064, N-[2-[5-amino-1-[6-(4-fluorophenoxy)-4-methylpyridin-3-yl]pyrazole-4-carbonyl]-5-methyl-1H-indol-6-yl]morpholine-4-sulfonamide], the IC50 turned out to be 260 nM in experiment [1], 24 nM in experiment [2] and 340 nM in experiment [3].
`Cc1cc(Oc2ccccc2F)ncc1-n1ncc(C(=O)c2cc3cc(F)c(NS(=O)(=O)N4CCOCC4)cc3[nH]2)c1N` [Example 4-5-001, N-{2-{5-amino-1-[6-(2-fluorophenoxy)-4-methylpyridin-3-yl]pyrazole-4-carbonyl}-5-fluoro-1H-indol-6-yl}morpholine-4-sulfonamide]: the IC50 in experiment [1] (setting [4]) was found to be 33 nM; in experiment [2] (setting [4]), 1.2 nM; in experiment [3] (setting [4]) it was 120 nM.
On the same counts, the results for `Cc1cc2cc(C(=O)c3cnn(-c4ccc(Oc5ccccc5F)cc4C)c3N)[nH]c2cc1N1C(=O)NC(C)(C(F)(F)F)C1=O` (stereo not drawn) [Example 5-1-435, 3-[2-[5-amino-1-[4-(2-fluorophenoxy)-2-methylphenyl]pyrazole-4-carbonyl]-5-methyl-1H-indol-6-yl]-5-methyl-5-(trifluoromethyl) imidazolidine-2,4-dione] are 21 nM, 2 nM and 120 nM.
On the same counts, the results for `Cc1cc(Oc2c(F)cccc2F)ncc1-n1ncc(C(=O)c2cc3cc(OCC(F)F)c(NC4COC4)cc3[nH]2)c1N` [Example 4-23-008, {5-amino-1-[6-(2,6-difluorophenoxy)-4-methylpyridin-3-yl]pyrazol-4-yl}-[5-(2,2-difluoroethoxy)-6-(oxetan-3-ylamino)-1H-indol-2-yl]methanone] are 4.6 nM, 3.3 nM and 23 nM.
With `Cc1cc(Oc2ccccc2F)ccc1-n1ncc(C(=O)c2cc3cc(OCC(F)F)c(NC4CCN(S(C)(=O)=O)CC4)cc3[nH]2)c1N` [Example 4-23-017, [5-amino-1-[4-(2-fluorophenoxy)-2-methylphenyl]pyrazol-4-yl]-[5-(2,2-difluoroethoxy)-6-[(1-methylsulfonylpiperidin-4-yl)amino]-1H-indol-2-yl]methanone], the IC50 stood at 13 nM in experiment [1] (setting [4]), 5.1 nM in experiment [2] (setting [4]) and 28 nM in experiment [3] (setting [4]).
On to `Cc1cc(Oc2ccccc2F)ccc1-n1ncc(C(=O)c2cc3cc(OCC(F)F)c(N4C(=O)[C@@H]5C[C@H](NC(=O)OCc6ccccc6)CN5C4=O)cc3[nH]2)c1N` [Example 5-1-273, Benzyl N-[(6S,7aS)-2-[2-[5-amino-1-[4-(2-fluorophenoxy)-2-methylphenyl]pyrazole-4-carbonyl]-5-(2,2-difluoroethoxy)-1H-indol-6-yl]-1,3-dioxo-5,6,7,7a-tetrahydropyrrolo[1,2-c]imidazol-6-yl]carbamate], for which the IC50 turned out to be 15 nM in experiment [1], 1.8 nM in experiment [2] and 33 nM in experiment [3].
As to `Cc1cc2cc(C(=O)c3cnn(-c4cnc(Oc5ccccc5Cl)cc4C)c3N)[nH]c2cc1NS(=O)(=O)CCCF` [Example 4-2-074, N-[2-[5-amino-1-[6-(2-chlorophenoxy)-4-methylpyridin-3-yl]pyrazole-4-carbonyl]-5-methyl-1H-indol-6-yl]-3-fluoropropane-1-sulfonamide], the IC50 came to 27 nM in experiment [1] (setting [4]), 2.7 nM in experiment [2] (setting [4]) and 71 nM in experiment [3] (setting [4]).
`Cc1cc(Oc2cc(F)ccc2F)cc(F)c1-n1ncc(C(=O)c2cc3cc(F)c(NS(=O)(=O)C4CC4)cc3[nH]2)c1N` [Example 4-7-008, N-[2-[5-amino-1-[4-(2,5-difluorophenoxy)-2-fluoro-6-methylphenyl]pyrazole-4-carbonyl]-5-fluoro-1H-indol-6-yl]cyclopropanesulfonamide]: the IC50 is 140 nM in experiment [1] (setting [4]), 5.9 nM in experiment [2] (setting [4]) and 490 nM in experiment [3] (setting [4]).
